The values that follow come from ChEMBL document CHEMBL1137817, “Potential antitumor-promoting diterpenes from the cones of Pinus luchuensis” (J Nat Prod, 2002).

Type in all cases: cell-based
For data set [1], the system named is Raji. The experiment in a line: Inhibition of 12-O-tetradecanoylphorbol 13-acetate-induced Epstein-Barr virus early antigen activation in human Raji cells assessed as EA induction at 10 mol ratio relative to TPA. On the set-up: scale not given: the % may be the effect or the level left. The settings on record: human gammaherpesvirus 4.
Data set [2] concerns Raji. The data set can be described thus: Inhibition of 12-O-tetradecanoylphorbol 13-acetate-induced Epstein-Barr virus early antigen activation in human Raji cells assessed as EA induction at 100 mol ratio relative to TPA. The conditions noted are these: human gammaherpesvirus 4. On the set-up: scale not given: the % may be the effect or the level left.
Data set [3] in a line: Cytotoxicity against human Raji cells assessed as cell viability at 1000 molar ratio after 48 hours relative to TPA. The conditions noted are these: read-out: Activity.
For data set [4], the system named is Raji. The data set can be described thus: Inhibition of 12-O-tetradecanoylphorbol 13-acetate-induced Epstein-Barr virus early antigen activation in human Raji cells assessed as EA induction at 1000 mol ratio relative to TPA. On the set-up: scale not given: the % may be the effect or the level left. The settings on record: human gammaherpesvirus 4.
For data set [5], the system named is Raji. The experiment in a line: Inhibition of 12-O-tetradecanoylphorbol 13-acetate-induced Epstein-Barr virus early antigen activation in human Raji cells assessed as EA induction at 500 mol ratio relative to TPA. On the set-up: scale not given: the % may be the effect or the level left. The conditions noted are these: human gammaherpesvirus 4.

Take `C=C1CC[C@@H]2[C@](C)(CCC[C@]2(C)C(=O)O)[C@H]1C/C=C(\C)C(=O)O`: the Activity in the data set with Raji [1] is 93.4%; with Raji [2] it was 74.4%; with Raji [4], 5%; with Raji [5], 47.1%. Further, in data set [3], the viability at 48 h, 1000 molar ratio relative to TPA is 60%.

`C=C1CC[C@@H]2[C@](C)(CCC[C@]2(C)C(=O)O)[C@H]1C/C=C(\C)C=O`: the Activity is 91.4% in the data set with Raji [1], 68.5% in the data set with Raji [2], 0% in the data set on Raji [4] and 31.4% in the data set on Raji [5]. Also, the viability at 48 h, 1000 molar ratio relative to TPA in data set [3] came to 70%.

In the case of `C=C/C(C)=C/C[C@H]1C(=C)CC[C@@H]2[C@]1(C)CCC[C@]2(C)C(=O)O`, the Activity in the data set with Raji [1] came out at 90.5%; with Raji [2] it was 75.3%; in the data set with Raji [4], 4.4%; with Raji [5], 46.2%. Further, the viability at 48 h, 1000 molar ratio relative to TPA in data set [3] was found to be 60%.

`CC1=C(/C=C/C(C)=C/C=C/C(C)=C/C=C/C=C(C)/C=C/C=C(C)/C=C/C2=C(C)CCCC2(C)C)C(C)(C)CCC1` [BETA CAROTENE]: the Activity in the data set on Raji [1] amounted to 100%; in the data set with Raji [2], 82%; in the data set with Raji [4], 9%; in the data set with Raji [5], 34%. Also, the viability at 48 h, 1000 molar ratio relative to TPA in data set [3] was 90%.

As to `CC(C)c1ccc2c(c1)CC[C@H]1[C@](C)(C(=O)O)CCC[C@]21C` [DEHYDROABIETIC ACID], the Activity in the data set with Raji [1] was found to be 97.9%; in the data set with Raji [2], 69.8%; in the data set on Raji [4] it was 2.9%; with Raji [5] it was 32.7%. Also, the viability at 48 h, 1000 molar ratio relative to TPA in data set [3] was determined as 70%.

For the molecule `C=C[C@]1(C)C=C2CC[C@@H]3[C@](C)(CCC[C@@]3(C)C(=O)O)[C@H]2CC1` [SANDARACOPIMARIC ACID], the Activity is 91.9% in the data set on Raji [1], 70.4% in the data set on Raji [2], 0% in the data set with Raji [4] and 22.5% with Raji [5]. For the same molecule, in data set [3], the viability at 48 h, 1000 molar ratio relative to TPA is 70%.
